Measurements published in ChEMBL document CHEMBL3608297, “Structure-based de novo design and synthesis of aminothiazole-based p38 MAP kinase inhibitors” (Bioorg Med Chem Lett, 2015).

Target: MAP kinase p38 (Homo sapiens, UniProt O15264+Q15759+Q16539+P53778)
Assay: Inhibition of p38 MAP kinase (unknown origin) by biochemical assay
Assay type: protein assay

| IC50 | Structure (SMILES) |
| --- | --- |
| 12.7 µM | O=C(c1cnc(Nc2cccc([N+](=O)[O-])c2F)s1)c1ccccc1Cl |
| 1.23 µM | COc1cccc(C(=O)c2cnc(Nc3ccccc3)s2)c1 |
| 0.25 µM | O=C(c1cnc(Nc2ccc(O)cc2F)s1)c1ccccc1Cl |
| 1.62 µM | O=C(c1cnc(Nc2cccc([N+](=O)[O-])c2)s1)c1ccccc1Cl |
| 0.91 µM | O=C(c1cnc(Nc2ccc(Cl)cc2)s1)c1ccccc1Cl |
| 1.31 µM | O=C(c1cccc(O)c1)c1cnc(Nc2ccccc2)s1 |
| 1.07 µM | O=C(c1cnc(Nc2ccccc2)s1)c1ccccc1Br |
| 0.79 µM | O=C(c1cnc(Nc2ccccc2F)s1)c1ccccc1Cl |
| 1.2 µM | O=C(Nc1cccc(Nc2ncc(C(=O)c3ccccc3Cl)s2)c1)c1ccccc1 |
| > 200 µM | Nc1ccc(Nc2ncc(C(=O)c3ccccc3Cl)s2)cc1 |
| 1.98 µM | O=C(Nc1cccc(Nc2ncc(C(=O)c3ccccc3Cl)s2)c1F)c1ccccc1 |
| 16.2 µM | Nc1cccc(Nc2ncc(C(=O)c3ccccc3Cl)s2)c1 |
| 0.45 µM | Nc1cccc(Nc2ncc(C(=O)c3ccccc3Cl)s2)c1F |
| 0.18 µM | O=C(c1cnc(Nc2ccc(F)cc2F)s1)c1ccccc1Cl |
| 1.44 µM | COc1ccc(Nc2ncc(C(=O)c3ccccc3Cl)s2)cc1 |
| 0.61 µM | O=C(c1cnc(Nc2ccccc2)s1)c1ccccc1Cl |
| 0.94 µM | O=C(c1cnc(Nc2ccc(Br)cc2)s1)c1ccccc1Cl |
| 116 µM | Cc1ccccc1C(=O)c1cnc(Nc2ccccc2)s1 |
| 0.33 µM | O=C(c1cnc(Nc2ccc(F)cc2)s1)c1ccccc1Cl |
| 1.07 µM | O=C(c1ccccc1)c1cnc(Nc2ccccc2)s1 |
| 2.04 µM | O=C(c1cnc(Nc2ccc(O)cc2)s1)c1ccccc1Cl |
